According to patent publication US11793849B2, “Method of Chinese herbal medicine extract used for treating multiple diseases caused by drug resistant bacteria infection” (priority 2016, dated 2023):
Values after ≈ are worked out from the molar mass of the structure shown. Read-outs that look alike come from different tables or passages of the source.

Legend:
[1] = test system: MDRPA; assay: MIC determination, microdilution broth method;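 further: broth microdilution per NCCLS recommendations, testing Pithecellobium clypearia water or ethanol extracts against multidrug-resistant Pseudomonas aeruginosa, with MIC50 and MIC90 derived statistically from individual MICs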
[2] = test system: ATCC27853; assay: MIC determination, control strain; type: cell-based
[3] = 20 MDRPAs, EA = 60% ethanol extract
[4] = 20 MDRPAs, EA = 95% ethanol extract
[5] = MDRPAs P1-P20, single use, EA=P. clypearia 10% ethanol extract
[6] = MDRPAs P1-P20, single use, EA=P. clypearia water extract
[7] = single use, 20 MDRPAs, section of the 10% ethanol extract
[8] = single use, 20 MDRPAs, section of the 60% ethanol extract
[9] = single use, 20 MDRPAs, section of the 95% ethanol extract

MIC50 [1, 3]: 64 µg/mL (≈ 99.1 µM) | MIC90 [1, 3]: 512 µg/mL (≈ 793 µM) | MIC Range [1, 3]: 8 to 512 µg/mL | MIC50 [1, 4]: 64 µg/mL (≈ 99.1 µM) | MIC90 [1, 4]: 512 µg/mL (≈ 793 µM) | MIC Range [1, 4]: 8 to 512 µg/mL | MIC50 [1, 5]: 64 µg/mL (≈ 99.1 µM) | MIC90 [1, 5]: 512 µg/mL (≈ 793 µM) | MIC Range [1, 5]: 8 to 512 µg/mL | MIC50 [1, 6]: 64 µg/mL (≈ 99.1 µM) | MIC90 [1, 6]: 512 µg/mL (≈ 793 µM) | MIC Range [1, 6]: 8 to 512 µg/mL | MIC50 ([1]; Pseudomonas aeruginosa): 64 µg/mL (≈ 99.1 µM) | MIC90 ([1]; Pseudomonas aeruginosa): 512 µg/mL (≈ 793 µM) | MIC ([1]; Pseudomonas aeruginosa, read-out: MIC (single use), strain P1, EA=P. clypearia 10% ethanol extract): 128 µg/mL (≈ 198 µM) | MIC ([1]; Pseudomonas aeruginosa, read-out: MIC (single use), strain P1, EA=P. clypearia water extract): 128 µg/mL (≈ 198 µM) | MIC ([1]; Pseudomonas aeruginosa, read-out: MIC (single use), strain P2, EA=P. clypearia 10% ethanol extract): 256 µg/mL (≈ 396 µM) | MIC ([1]; Pseudomonas aeruginosa, read-out: MIC (single use), strain P2, EA=P. clypearia water extract): 256 µg/mL (≈ 396 µM) | MIC ([1]; Pseudomonas aeruginosa, read-out: MIC (single use), strain P3, EA=P. clypearia 10% ethanol extract): 16 µg/mL (≈ 24.8 µM) | MIC ([1]; Pseudomonas aeruginosa, read-out: MIC (single use), strain P3, EA=P. clypearia water extract): 16 µg/mL (≈ 24.8 µM) | MIC ([1]; Pseudomonas aeruginosa, read-out: MIC (single use), strain P4, EA=P. clypearia 10% ethanol extract): 8 µg/mL (≈ 12.4 µM) | MIC ([1]; Pseudomonas aeruginosa, read-out: MIC (single use), strain P4, EA=P. clypearia water extract): 8 µg/mL (≈ 12.4 µM) | MIC ([1]; Pseudomonas aeruginosa, read-out: MIC (single use), strain P5, EA=P. clypearia 10% ethanol extract): 512 µg/mL (≈ 793 µM) | MIC ([1]; Pseudomonas aeruginosa, read-out: MIC (single use), strain P5, EA=P. clypearia water extract): 512 µg/mL (≈ 793 µM) | MIC ([1]; Pseudomonas aeruginosa, read-out: MIC (single use), strain P6, EA=P. clypearia 10% ethanol extract): 512 µg/mL (≈ 793 µM) | MIC ([1]; Pseudomonas aeruginosa, read-out: MIC (single use), strain P6, EA=P. clypearia water extract): 512 µg/mL (≈ 793 µM) | MIC ([1]; Pseudomonas aeruginosa, read-out: MIC (single use), strain P7, EA=P. clypearia 10% ethanol extract): 512 µg/mL (≈ 793 µM) | MIC ([1]; Pseudomonas aeruginosa, read-out: MIC (single use), strain P7, EA=P. clypearia water extract): 512 µg/mL (≈ 793 µM) | MIC ([1]; Pseudomonas aeruginosa, read-out: MIC (single use), strain P8, EA=P. clypearia 10% ethanol extract): 16 µg/mL (≈ 24.8 µM) | MIC ([1]; Pseudomonas aeruginosa, read-out: MIC (single use), strain P8, EA=P. clypearia water extract): 16 µg/mL (≈ 24.8 µM) | MIC ([1]; Pseudomonas aeruginosa, read-out: MIC (single use), strain P9, EA=P. clypearia 10% ethanol extract): 64 µg/mL (≈ 99.1 µM) | MIC ([1]; Pseudomonas aeruginosa, read-out: MIC (single use), strain P9, EA=P. clypearia water extract): 64 µg/mL (≈ 99.1 µM) | MIC ([1]; Pseudomonas aeruginosa, read-out: MIC (single use), strain P10, EA=P. clypearia 10% ethanol extract): 8 µg/mL (≈ 12.4 µM) | MIC ([1]; Pseudomonas aeruginosa, read-out: MIC (single use), strain P10, EA=P. clypearia water extract): 8 µg/mL (≈ 12.4 µM) | MIC ([1]; Pseudomonas aeruginosa, read-out: MIC (single use), strain P11, EA=P. clypearia 10% ethanol extract): 8 µg/mL (≈ 12.4 µM) | MIC ([1]; Pseudomonas aeruginosa, read-out: MIC (single use), strain P11, EA=P. clypearia water extract): 8 µg/mL (≈ 12.4 µM) | MIC ([1]; Pseudomonas aeruginosa, read-out: MIC (single use), strain P12, EA=P. clypearia 10% ethanol extract): 512 µg/mL (≈ 793 µM) | MIC ([1]; Pseudomonas aeruginosa, read-out: MIC (single use), strain P12, EA=P. clypearia water extract): 512 µg/mL (≈ 793 µM) | MIC ([1]; Pseudomonas aeruginosa, read-out: MIC (single use), strain P13, EA=P. clypearia 10% ethanol extract): 256 µg/mL (≈ 396 µM) | MIC ([1]; Pseudomonas aeruginosa, read-out: MIC (single use), strain P13, EA=P. clypearia water extract): 256 µg/mL (≈ 396 µM) | MIC ([1]; Pseudomonas aeruginosa, read-out: MIC (single use), strain P14, EA=P. clypearia 10% ethanol extract): 8 µg/mL (≈ 12.4 µM) | MIC ([1]; Pseudomonas aeruginosa, read-out: MIC (single use), strain P14, EA=P. clypearia water extract): 8 µg/mL (≈ 12.4 µM) | MIC ([1]; Pseudomonas aeruginosa, read-out: MIC (single use), strain P15, EA=P. clypearia 10% ethanol extract): 64 µg/mL (≈ 99.1 µM) | MIC ([1]; Pseudomonas aeruginosa, read-out: MIC (single use), strain P15, EA=P. clypearia water extract): 64 µg/mL (≈ 99.1 µM) | MIC ([1]; Pseudomonas aeruginosa, read-out: MIC (single use), strain P16, EA=P. clypearia 10% ethanol extract): > 512 µg/mL | MIC ([1]; Pseudomonas aeruginosa, read-out: MIC (single use), strain P16, EA=P. clypearia water extract): > 512 µg/mL | MIC ([1]; Pseudomonas aeruginosa, read-out: MIC (single use), strain P17, EA=P. clypearia 10% ethanol extract): 16 µg/mL (≈ 24.8 µM) | MIC ([1]; Pseudomonas aeruginosa, read-out: MIC (single use), strain P17, EA=P. clypearia water extract): 16 µg/mL (≈ 24.8 µM) | MIC ([1]; Pseudomonas aeruginosa, read-out: MIC (single use), strain P18, EA=P. clypearia 10% ethanol extract): 256 µg/mL (≈ 396 µM) | MIC ([1]; Pseudomonas aeruginosa, read-out: MIC (single use), strain P18, EA=P. clypearia water extract): 256 µg/mL (≈ 396 µM) | MIC ([1]; Pseudomonas aeruginosa, read-out: MIC (single use), strain P19, EA=P. clypearia 10% ethanol extract): 64 µg/mL (≈ 99.1 µM) | MIC ([1]; Pseudomonas aeruginosa, read-out: MIC (single use), strain P19, EA=P. clypearia water extract): 64 µg/mL (≈ 99.1 µM) | MIC ([1]; Pseudomonas aeruginosa, read-out: MIC (single use), strain P20, EA=P. clypearia 10% ethanol extract): > 512 µg/mL | MIC ([1]; Pseudomonas aeruginosa, read-out: MIC (single use), strain P20, EA=P. clypearia water extract): > 512 µg/mL | MIC50 [1, 7]: 64 µg/mL (≈ 99.1 µM) | MIC90 [1, 7]: 512 µg/mL (≈ 793 µM) | MIC50 [1, 8]: 64 µg/mL (≈ 99.1 µM) | MIC90 [1, 8]: 512 µg/mL (≈ 793 µM) | MIC50 [1, 9]: 64 µg/mL (≈ 99.1 µM) | MIC90 [1, 9]: 512 µg/mL (≈ 793 µM) | MIC (single use) ([1]; strain P16, EA=P. clypearia 10% ethanol extract): 1024 µg/mL (≈ 1590 µM) | MIC (single use) ([1]; strain P16, EA=P. clypearia water extract): 1024 µg/mL (≈ 1590 µM) | MIC (single use) ([1]; strain P20, EA=P. clypearia 10% ethanol extract): 1024 µg/mL (≈ 1590 µM) | MIC (single use) ([1]; strain P20, EA=P. clypearia water extract): 1024 µg/mL (≈ 1590 µM) | MIC ([2]; EA=P. clypearia 10% ethanol extract, read-out: MIC (single use)): 8 µg/mL (≈ 12.4 µM) | MIC ([2]; EA=P. clypearia water extract, read-out: MIC (single use)): 8 µg/mL (≈ 12.4 µM) | MIC ([2]; single use, EA = 60% ethanol extract, read-out: MIC): 8 µg/mL (≈ 12.4 µM) | MIC ([2]; single use, EA = 95% ethanol extract, read-out: MIC): 8 µg/mL (≈ 12.4 µM)
Compound: CCN1CCN(C(=O)N[C@@H](C(=O)N[C@@H]2C(=O)N3C(C(=O)O)=C(CSc4nnnn4C)CS[C@H]23)c2ccc(O)cc2)C(=O)C1=O [CFP, Cefoperazone]
